Source: US20080200555A1, “USE OF NOREPINEPHRINE REUPTAKE INHIBITORS FOR THE TREATMENT OF TIC DISORDERS” (priority 2001, published 2008)

Experiment: Case report: atomoxetine treatment of a person with ADHD and tics (Example 1)
Type: in vivo, human
Source text: A person presented with ADHD and tics. […] At baseline, the tics included multiple motor and multiple vocal tics, some complex or in bouts. Their vocal tics were especially problematic and disruptive, causing difficulties for the child at school, in social situations, and when the family went out in public (for example, to a restaurant). The clinical global impression-severity score (CGI-S) is a seven-point scale (1=normal, 7=very severely ill) that summarizes a clinician's overall impression about how severe a patient's illness is compared to other patients the clinician has treated. Based on the parent's report, the retrospective CGI-S score for the child's tics at baseline was 5, markedly ill. The YGTSS is the Yale Global Tic Severity Scale and summarizes the number, severity and frequency of a patient's tics. The minimum score on the YGTSS is zero and the maximum is 50. Based on the parent's description the patient's baseline YGTSS was about 30.
After about 2 to 3 weeks of atomoxetine treatment, the patient's parent reported a single head tic and a few eye blinking tics in the previous week, and no vocal tics. The parent also reported that the patient's complex tics or compulsive behaviors (which had involved them playing with some doors with their feet in a somewhat stereotypical manner), had also stopped. […] The CGI-S score for the child's tics based on the interview with their parent was […], minimally ill. Based on the same interview, the YGTSS total score for the child was 8. The clinical global impression-improvement (CGI-I) score is a seven-point scale (1=very much improve, 7=very much worse) that summarizes a clinician's overall impression about how much a patient has improved with treatment as compared to where they were at baseline. The CGI-I score for the patient's tics was 1, very much improved.

[1] = after about 2 to 3 weeks of atomoxetine treatment

## CNCC[C@@H](Oc1ccccc1C)c1ccccc1 [atomoxetine, (R)-(−)-N-methyl-3-(2-methylphenoxy)-3-phenylpropylamine]
[1]
  complex tics or compulsive behaviors (mother's report): stopped
  vocal tics in the previous week (mother's report): no vocal tics
Person with ADHD and tics, after about 2 to 3 weeks of atomoxetine treatment, scale 0 to 50, baseline about 30
  YGTSS (Yale Global Tic Severity Scale) total score: 8
Person with ADHD and tics, after about 2 to 3 weeks of atomoxetine treatment, seven-point scale (1=normal, 7=very severely ill), baseline 5
  clinical global impression-severity score (CGI-S) for the child's tics: 2a
Person with ADHD and tics, after starting on atomoxetine
  change in tics after starting treatment: dramatic drop
Person with ADHD and tics, on atomoxetine treatment
  ADHD: improved
Person with ADHD and tics, seven-point scale (1=very much improve, 7=very much worse), compared to baseline
  clinical global impression-improvement (CGI-I) score for the patient's tics: 1
